In ChEMBL document CHEMBL6177991, “Discovery of P11-2: A Potent First-in-Class MNK1-Targeting PROTAC Degrader for the Treatment of Cancer” (J Med Chem, 2025):
The source made the active and inactive calls. The rule behind the calls is not given here.

Key:
MV4-11 [1] = experiment: Anti-proliferative activity against human MV4-11 cells measured after 72 hrs by CCK8 assay; conditions: MV4-11, 72 h
MDA-MB-231 = experiment: Anti-proliferative activity against human MDA-MB-231 cells measured after 96 hrs by CCK8 assay; conditions: MDA-MB-231, 96 h
MOLM-13 = experiment: Anti-proliferative activity against human MOLM-13 cells measured after 72 hrs by CCK8 assay; conditions: MOLM-13, 72 h
MM1.S = experiment: Anti-proliferative activity against human MM1.S cells measured after 120 hrs by CCK8 assay
[2] = biological target: MAP kinase-interacting serine/threonine-protein kinase 1 (Homo sapiens, UniProt Q9BUB5); experiment: Inhibition of recombinant MNK1 (unknown origin) using TATKSGSTTKNR peptide as substrate preincubated for 5 mins followed by ATP addition and measured after 40 mins by ADP-Glo kinase assay
Chain of MAP kinase-interacting serine/threonine-protein kinase 1 (Q9BUB5 whole entry): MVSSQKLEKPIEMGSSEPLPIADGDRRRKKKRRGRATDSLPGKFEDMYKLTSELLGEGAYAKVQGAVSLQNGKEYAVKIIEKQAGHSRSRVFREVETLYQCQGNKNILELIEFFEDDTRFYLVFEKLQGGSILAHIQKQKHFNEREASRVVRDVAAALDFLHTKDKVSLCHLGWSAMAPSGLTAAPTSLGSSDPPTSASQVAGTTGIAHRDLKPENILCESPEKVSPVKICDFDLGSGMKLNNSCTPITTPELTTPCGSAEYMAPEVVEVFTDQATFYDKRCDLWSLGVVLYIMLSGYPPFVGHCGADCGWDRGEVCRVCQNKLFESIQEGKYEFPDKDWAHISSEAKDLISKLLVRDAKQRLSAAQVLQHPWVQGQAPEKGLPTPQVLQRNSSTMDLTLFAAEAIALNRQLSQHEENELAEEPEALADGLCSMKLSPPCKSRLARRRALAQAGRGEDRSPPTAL

MV4-11 [3] = experiment: Induction of apoptosis in human MV4-11 cells assessed as necrotic cells at 300 nM incubated for 24 hrs by Annexin V-FITC/PI dual staining based flow cytometric analysis (reference value: 0.16 %); type: functional
[4] = Toxicity in nude female NSG mouse xenografted with human MV4-11 cells assessed as change in body weight at 20 mg/kg, ip qd administrated for 16 days; type: organism-based; conditions: in vivo, 384 h, time 16 day
MV4-11 [5] = experiment: Induction of MNK2 degradation in human MV4-11 cells at 300 to 1000 nM incubated for 24 hrs by immunoblot analysis; type: cell-based; conditions: dose 300-1000 nM
MV4-11 [6] = experiment: Induction of apoptosis in human MV4-11 cells assessed as late apoptotic cells at 300 nM incubated for 24 hrs by Annexin V-FITC/PI dual staining based flow cytometric analysis (reference value: 1.48 %); type: functional
MV4-11 [7] = experiment: Induction of apoptosis in human MV4-11 cells assessed as early apoptotic cells at 300 nM incubated for 24 hrs by Annexin V-FITC/PI dual staining based flow cytometric analysis (reference value: 3.42 %); type: functional
MV4-11 [8] = experiment: Induction of apoptosis in human MV4-11 cells assessed as viable cells at 300 nM incubated for 24 hrs by Annexin V-FITC/PI dual staining based flow cytometric analysis (reference value: 94.9 %); type: functional; conditions: read-out: Activity
MV4-11 [9] = experiment: Antitumor activity against human MV4-11 cells xenografted in nude female NSG mouse assessed as tumor growth inhibition at 20 mg/kg, ip qd administrated for 16 days by caliper method relative to control; type: functional; conditions: MV4-11, 384 h, time 16 day, read-out: TGI

IC50 (MV4-11 [1])	SMILES	other results
2.17 µM	O=C1CCC(N2Cc3c(NC(=O)CCCCC(=O)N4CCC(C(=O)Nc5ncc(-c6ccccc6)s5)CC4)cccc3C2=O)C(=O)N1 (stereo not drawn)	
> 10 µM	O=C1CCC(N2Cc3c(NC(=O)CCc4ccc(OCCCC(=O)N5CCC(C(=O)Nc6ncc(-c7ccccc7)s6)CC5)cc4)cccc3C2=O)C(=O)N1 (stereo not drawn)	
1.44 µM	O=C1CCC(N2Cc3c(NC(=O)CCCCOc4ccc(CC(=O)N5CCC(C(=O)Nc6ncc(-c7ccccc7)s6)CC5)cc4)cccc3C2=O)C(=O)N1 (stereo not drawn)	IC50 (MDA-MB-231): > 20 µM; IC50 (MOLM-13): 9.52 µM; IC50 (MM1.S): 2.43 µM
> 10 µM	CN1C(=O)CCC(N2Cc3c(NC(=O)CCCCCC(=O)N4CCC(C(=O)Nc5ncc(-c6ccccc6)s5)CC4)cccc3C2=O)C1=O (stereo not drawn)	
> 10 µM	O=C1CCC(N2C(=O)c3cc(F)c(N4CCN(C(=O)CCCCC(=O)N5CCC(C(=O)Nc6ncc(-c7ccccc7)s6)CC5)CC4)cc3C2=O)C(=O)N1 (stereo not drawn)	
4.59 µM	O=C1CCC(N2Cc3c(NC(=O)CCCCCCCC(=O)N4CCC(C(=O)Nc5ncc(-c6ccccc6)s5)CC4)cccc3C2=O)C(=O)N1 (stereo not drawn)	
5.41 µM	O=C(CC(=O)N1CCC(C(=O)Nc2ncc(-c3ccccc3)s2)CC1)NCCCCCCCC(=O)Nc1cccc2c1CN(C1CCC(=O)NC1=O)C2=O (stereo not drawn)	
0.86 µM	O=C(CC(=O)N1CCC(C(=O)Nc2ncc(-c3ccccc3)s2)CC1)NCCCCCCC(=O)Nc1cccc2c1CN(C1CCC(=O)NC1=O)C2=O (stereo not drawn)	IC50 (MDA-MB-231): 17.6 µM; IC50 (MOLM-13): 6.96 µM; IC50 (MM1.S): 1.91 µM
3.36 µM	O=C1CCC(N2Cc3c(NC(=O)CCCCN4CCC(C(=O)Nc5ncc(-c6ccccc6)s5)CC4)cccc3C2=O)C(=O)N1 (stereo not drawn)	
5.13 µM	O=C1CCC(N2C(=O)c3cc(F)c(N4CCN(C(=O)CCC(=O)N5CCC(C(=O)Nc6ncc(-c7ccccc7)s6)CC5)CC4)cc3C2=O)C(=O)N1 (stereo not drawn)	
7.1 µM	O=C(CC(=O)N1CCC(C(=O)Nc2ncc(-c3ccccc3)s2)CC1)NCCCCCC(=O)Nc1cccc2c1CN(C1CCC(=O)NC1=O)C2=O (stereo not drawn)	
6.17 µM	O=C(CC(=O)N1CCC(C(=O)Nc2ncc(-c3ccccc3)s2)CC1)NCCCCC(=O)Nc1cccc2c1CN(C1CCC(=O)NC1=O)C2=O (stereo not drawn)	
> 10 µM	O=C1CCC(N2C(=O)c3cc(F)c(N4CCN(C(=O)CC(=O)N5CCC(C(=O)Nc6ncc(-c7ccccc7)s6)CC5)CC4)cc3C2=O)C(=O)N1 (stereo not drawn)	
8.98 µM	O=C1CCC(N2C(=O)c3cc(F)c(N4CCN(C(=O)CCCC(=O)N5CCC(C(=O)Nc6ncc(-c7ccccc7)s6)CC5)CC4)cc3C2=O)C(=O)N1 (stereo not drawn)	IC50 [2]: 0.64 µM
2.28 µM	O=C1CCC(N2C(=O)c3cc(F)c(N4CCN(C(=O)CCCCCCC(=O)N5CCC(C(=O)Nc6ncc(-c7ccccc7)s6)CC5)CC4)cc3C2=O)C(=O)N1 (stereo not drawn)	IC50 (MDA-MB-231): > 20 µM; IC50 (MOLM-13): 10 µM; IC50 (MM1.S): 3.84 µM
7.9 µM	O=C1CCC(N2C(=O)c3cc(F)c(N4CCN(C(=O)CCCCN5CCC(C(=O)Nc6ncc(-c7ccccc7)s6)CC5)CC4)cc3C2=O)C(=O)N1 (stereo not drawn)	

IC50 (MV4-11 [1])	SMILES	other results
> 10 µM	O=C1CCC(N2Cc3c(NC(=O)CCc4ccc(OCCCCC(=O)N5CCC(C(=O)Nc6ncc(-c7ccccc7)s6)CC5)cc4)cccc3C2=O)C(=O)N1 (stereo not drawn)	
9.89 µM	O=C1CCC(N2Cc3c(NC(=O)CCCCOc4ccc(CCC(=O)N5CCC(C(=O)Nc6ncc(-c7ccccc7)s6)CC5)cc4)cccc3C2=O)C(=O)N1 (stereo not drawn)	
5.21 µM	O=C1CCC(N2Cc3c(NC(=O)CCCCCCCCC(=O)N4CCC(C(=O)Nc5ncc(-c6ccccc6)s5)CC4)cccc3C2=O)C(=O)N1 (stereo not drawn)	
4.08 µM	O=C1CCC(N2C(=O)c3cc(F)c(N4CCN(C(=O)CCCCCC(=O)N5CCC(C(=O)Nc6ncc(-c7ccccc7)s6)CC5)CC4)cc3C2=O)C(=O)N1 (stereo not drawn)	
> 10 µM	O=C(CCC(=O)N1CCC(C(=O)Nc2ncc(-c3ccccc3)s2)CC1)NCCCCCC(=O)Nc1cccc2c1CN(C1CCC(=O)NC1=O)C2=O (stereo not drawn)	
> 10 µM	O=C(CC(=O)N1CCC(C(=O)Nc2ncc(-c3ccccc3)s2)CC1)NCCOCC(=O)Nc1cccc2c1CN(C1CCC(=O)NC1=O)C2=O (stereo not drawn)	
4.89 µM	O=C1CCC(N2Cc3c(NC(=O)CCCCCCN4CCC(C(=O)Nc5ncc(-c6ccccc6)s5)CC4)cccc3C2=O)C(=O)N1 (stereo not drawn)	
0.21 µM	O=C1CCC(N2Cc3c(NC(=O)CCCCCCC(=O)N4CCC(C(=O)Nc5ncc(-c6ccccc6)s5)CC4)cccc3C2=O)C(=O)N1 (stereo not drawn)	IC50 (MDA-MB-231): 5.74 µM; IC50 (MOLM-13): 1.95 µM; IC50 (MM1.S): 0.41 µM
0.9 µM	O=C1CCC(N2Cc3c(NC(=O)CCCCCN4CCC(C(=O)Nc5ncc(-c6ccccc6)s5)CC4)cccc3C2=O)C(=O)N1 (stereo not drawn)	IC50 (MDA-MB-231): 12.2 µM; IC50 (MOLM-13): 11.5 µM; IC50 (MM1.S): 1.22 µM
> 10 µM	O=C1CCC(N2C(=O)c3cc(F)c(N4CCN(C(=O)CCCCCN5CCC(C(=O)Nc6ncc(-c7ccccc7)s6)CC5)CC4)cc3C2=O)C(=O)N1 (stereo not drawn)	
> 10 µM	O=C1CCC(N2Cc3c(NC(=O)CCCCCCCN4CCC(C(=O)Nc5ncc(-c6ccccc6)s5)CC4)cccc3C2=O)C(=O)N1 (stereo not drawn)	
6.38 µM	O=C1CCC(N2Cc3c(NC(=O)CCCOc4ccc(CC(=O)N5CCC(C(=O)Nc6ncc(-c7ccccc7)s6)CC5)cc4)cccc3C2=O)C(=O)N1 (stereo not drawn)	
3.32 µM	CN1CCC(C(=O)Nc2ncc(-c3ccccc3)s2)CC1	Activity (MV4-11 [3]): 0.49%; Activity [4]: Non-toxic; IC50 [2]: 0.387 µM; Activity (MV4-11 [5]): inactive; IC50 (MDA-MB-231): > 20 µM; Activity (MV4-11 [6]): 3.75%; Activity (MV4-11 [7]): 9.59%; IC50 (MOLM-13): 12.1 µM; IC50 (MM1.S): 5.32 µM; viability at 0.3 µM (MV4-11 [8]): 86.2%; inhibition in vivo at 20 mg/kg (MV4-11 [9]): 28%
8.47 µM	O=C1CCC(N2C(=O)c3cc(F)c(N4CCN(C(=O)CCCN5CCC(C(=O)Nc6ncc(-c7ccccc7)s6)CC5)CC4)cc3C2=O)C(=O)N1 (stereo not drawn)	
8.58 µM	O=C1CCC(N2Cc3c(NC(=O)CCCOc4ccc(CCC(=O)N5CCC(C(=O)Nc6ncc(-c7ccccc7)s6)CC5)cc4)cccc3C2=O)C(=O)N1 (stereo not drawn)	
